Target: RibD-enolase complex (RibD activity) (Francisella tularensis, UniProt A0Q460)
Conditions: substrate generated in situ from GTP by E. coli RibA; with and without PEP

Nc1nc(N[C@@H]2O[C@H](COP(=O)(O)O)[C@@H](O)[C@H]2O)c(N)c(=O)[nH]1 [2,5-diamino-6-ribosyl-amino-4(3H) pyrimidinedione 5′-phosphate]
fluorescence of the RibD reaction product (ex 408 nm, em 485 nm): Results showed similar activity for both, with PEP having the same effect on each

Reference: publication PMC12742849 (Protein & Cell, 2025)
